Experimental data as given in the supplement of paper PMC6580486.

Experiments:
PCB490-5 = test system: PCB490-5 (human epithelioid sarcoma primary culture)
Description: (§1)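 Roche open-access kinase inhibitor screen (223 compounds) on human epithelioid sarcoma primary cultures from three spatially distinct regions of tumor PCB490. 384-well plates, 72 h, CellTiter-Glo viability; IC50 by Hill curve fit. 100000 nM = no IC50 reached. Compound ids carry a plate-well prefix, which is stripped.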

PCB490-4 = test system: PCB490-4 (human epithelioid sarcoma primary culture)
Description: as §1

PCB490-3 = test system: PCB490-3 (human epithelioid sarcoma primary culture)
Description: as §1

Row | Compound | IC50 cell viability (PCB490-5) | IC50 cell viability (PCB490-4) | IC50 cell viability (PCB490-3)
1 | CS(=O)(=O)CCc1cccc(C(=O)c2cnn(-c3ccc(F)cc3)c2N)c1 | > 100 µM | > 100 µM | > 100 µM
2 | Nc1c(C(=O)c2cccc(C#CCN3CCCCC3)c2)cnn1-c1ccc(F)cc1 | > 100 µM | > 100 µM | > 100 µM
3 | Nc1c(C(=O)c2ccccc2)cnn1-c1ccc(F)cc1 | > 100 µM | > 100 µM | > 100 µM
4 | CC(=O)N[C@@H](Cc1ccc(OP(=O)(O)O)cc1)C(=O)N[C@H]1CCC(=O)N2CCC[C@@H](C(=O)NCc3ccc(O)cc3)N2C1=O | > 100 µM | > 100 µM | > 100 µM
5 | Cn1cc(C2=C(c3cn(C)c4ncccc34)C(=O)NC2=O)c2ccccc21 | > 100 µM | > 100 µM | > 100 µM
6 | CCCCCNC(=O)[C@@H]1CCCN2C(=O)CC[C@H](NC(=O)[C@H](Cc3ccc(OP(=O)(O)O)cc3)NC(C)=O)C(=O)N12 | > 100 µM | > 100 µM | > 100 µM
7 | Cn1cc(C2=C(c3ccsc3)C(=O)NC2=O)c2ccccc21 | > 100 µM | > 100 µM | > 100 µM
8 | O=C1NC(=NCCc2ccc(Cl)cc2)S/C1=C\c1ccc2ncccc2c1 | > 100 µM | > 100 µM | > 100 µM
9 | O=C1NC(=N[C@@H](CO)Cc2ccccc2)S/C1=C\c1ccc2ncccc2c1 | > 100 µM | > 100 µM | > 100 µM
10 | C[C@@H](Cn1ncnn1)Nc1ncc2cc(Oc3ccc(F)cc3F)c(=O)n(C)c2n1 | > 100 µM | > 100 µM | > 100 µM
11 | Cc1ccccc1-n1ncc(C(=O)c2ccccc2)c1N | > 100 µM | > 100 µM | > 100 µM
12 | COc1ccccc1CCN=C1NC(=O)/C(=C/c2ccc3ncccc3c2)S1 | > 100 µM | > 100 µM | > 100 µM
13 | COc1cccc(C2=C(c3cn(C)c4ccccc34)C(=O)NC2=O)c1 | > 100 µM | > 100 µM | > 100 µM
14 | O=C1NC(=O)C(c2c[nH]c3ccccc23)=C1c1ccccc1 | > 100 µM | > 100 µM | > 100 µM
15 | Cn1cc(C2=C(c3ccc4ccccc4c3)C(=O)NC2=O)c2ccccc21 | > 100 µM | > 100 µM | > 100 µM
16 | CNCC#Cc1c(F)ccc2c1/C(=C/c1[nH]ccc1OC)C(=O)N2 | 19.5 µM | 20.7 µM | 26.8 µM
17 | O=C1NC(=NCc2c(Cl)cccc2Cl)S/C1=C\c1ccc2ncccc2c1 | > 100 µM | > 100 µM | > 100 µM
18 | CC(=O)N[C@@H](Cc1ccc(OP(=O)(O)O)cc1)C(=O)N[C@H]1CCC(=O)N2CCC[C@@H](C(=O)NC3CCc4ccccc43)N2C1=O (stereo not given in full) | > 100 µM | > 100 µM | > 100 µM
19 | C[C@@H](c1ccccc1)[C@@H](C(=O)Nc1ccc(I)cc1F)N1C(=O)N[C@H](c2ccc(OC[C@H](O)CO)cc2)C1=O | > 100 µM | > 100 µM | > 100 µM
20 | Nc1c(C(=O)c2cccc(OC[C@H](O)CO)c2)cnn1-c1ccc(F)cc1 | > 100 µM | > 100 µM | > 100 µM
21 | CS(=O)(=O)N1CCC(n2c(=O)c(Oc3ccc(F)cc3F)cc3cnc(NC4CCOCC4)nc32)CC1 | > 100 µM | > 100 µM | > 100 µM
22 | Cn1c(=O)c(Oc2ccc(F)cc2F)cc2cnc(NCC(C)(C)O)nc21 | > 100 µM | > 100 µM | > 100 µM
23 | Cn1cc(C2=C(c3cccnc3)C(=O)NC2=O)c2ccccc21 | > 100 µM | > 100 µM | > 100 µM
24 | CS(=O)(=O)N1CCC(Nc2ncc(C(=O)c3c(F)cccc3F)c(N)n2)CC1 | > 100 µM | > 100 µM | > 100 µM
25 | O=C1NC(=NCCc2ccccc2F)S/C1=C\c1ccc2ncccc2c1 | > 100 µM | > 100 µM | > 100 µM
26 | Nc1[nH]nc2nc(-c3cccs3)cc(C(F)(F)F)c12 | > 100 µM | > 100 µM | > 100 µM
27 | COc1cccc(C2=C(c3cn(C)c4cc(F)ccc34)C(=O)NC2=O)c1 | > 100 µM | > 100 µM | > 100 µM
28 | Cn1cc(C2=C(c3c([S+](C)[O-])n(C)c4ccccc34)C(=O)NC2=O)c2ccccc21 (stereo not given) | > 100 µM | > 100 µM | > 100 µM
29 | Nc1c(C(=O)c2ccc(CCCN3CCOCC3)cc2)cnn1-c1ccc(F)cc1 | > 100 µM | > 100 µM | > 100 µM
30 | COc1cccc(C2=C(c3cn(C)c4c(C)cccc34)C(=O)NC2=O)c1 | > 100 µM | > 100 µM | > 100 µM
